In PubChem BioAssay AID1259408 (Genetic Toxicology Data Bank (GENE-TOX), 2018) one finds mutagenic call and call data, which are given here for 25 molecules.

Active and inactive are the calls of the source. The rule behind the calls is not given here.

In this data set the test system is GENE-TOX genotoxicity assays, various organisms and cells. In words: GENE-TOX mutagenicity studies. Conditions: for call: Assay Type: In vivo carcinogenicity studies.
[1] abbreviates: Species/Cell Type: Chinese hamster ovary (CHO) cells, Assay Type: Forward gene mutation at the HPRT locus, Assay Code: CHOT, Evaluation Type: Evaluation B (Post-1980).
Setting [2] is: Species/Cell Type: Nonhuman, Assay Code: CCG+L, Evaluation Type: Evaluation A (Pre-1980).
The mark [3] stands for this setting: Species/Cell Type: Salmonella typhimurium (one or more of the five standard strains: TA98, TA100, TA1535, TA1537, and TA1538), Assay Type: Histidine reverse gene mutation, Ames assay, Assay Code: SAL+, Evaluation Type: Evaluation A (Pre-1980).
Setting [4] is: Species/Cell Type: Salmonella typhimurium (one or more of the five standard strains: TA98, TA100, TA1535, TA1537, and TA1538), Assay Type: Histidine reverse gene mutation, Ames assay, Assay Code: SAL+*, Activation: With metabolic activation, Evaluation Type: Evaluation A (Pre-1980).
[5] abbreviates: Species/Cell Type: Saccharomyces cerevisiae, Assay Type: Mitotic recombination or gene conversion, Assay Code: YEC-, Evaluation Type: Evaluation A (Pre-1980).
[6] abbreviates: Species/Cell Type: Saccharomyces cerevisiae, Assay Type: Mitotic recombination or gene conversion, Assay Code: YEH-, Evaluation Type: Evaluation A (Pre-1980).
Where [7] appears, read: Species/Cell Type: Drosophila melanogaster, Assay Type: Sex-linked recessive lethal gene mutation, Assay Code: SRLT, Evaluation Type: Evaluation A (Pre-1980).
Where [8] appears, read: Species/Cell Type: Escherichia coli WP2 UVRA, Assay Type: Tryptophan reverse gene mutation, Assay Code: WPU-*, Activation: With metabolic activation, Evaluation Type: Evaluation A (Pre-1980).
Setting [9] is: Species/Cell Type: Salmonella typhimurium (one or more of the five standard strains: TA98, TA100, TA1535, TA1537, and TA1538), Assay Type: Histidine reverse gene mutation, Ames assay, Assay Code: SALT, Evaluation Type: Evaluation A (Pre-1980).

As for `ClCc1ccccc1`, the mutagenic call reads like this: (Species/Cell Type: Bacillus subtilis (H17 vs M45), Assay Type: Rec-assay, spot test, DNA effects (bacterial DNA repair), Assay Code: REW+, Evaluation Type: Evaluation A (Pre-1980)) “active; positive”; under setting [1], “no conclusion”; (Species/Cell Type: Escherichia coli polA (W3110 vs P3478), Assay Type: Rec-assay, DNA effects (bacterial DNA repair), Assay Code: RE2+, Evaluation Type: Evaluation A (Pre-1980)) “active; positive”; (Species/Cell Type: Escherichia coli polA (W3119 vs P3478), Assay Type: Rec-assay, DNA effects (bacterial DNA repair), Assay Code: RE1+, Evaluation Type: Evaluation A (Pre-1980)) “active; positive”; (Species/Cell Type: Human diploid fibroblasts, Assay Type: Unscheduled DNA synthesis (UDS) in vitro, DNA effects, Assay Code: UDH+, Evaluation Type: Evaluation A (Pre-1980)) “active; positive”; (Species/Cell Type: Human lymphocytes, Assay Type: Sister-chromatid exchange (SCE) in vitro, Assay Code: SCL+, Evaluation Type: Evaluation B (Post-1980)) “active; positive”. Besides, the mutagenic call reads like this: (Species/Cell Type: Human, Assay Type: Sister-chromatid exchange (SCE) in vitro, Assay Code: SC1+, Evaluation Type: Evaluation B (Post-1980)) “active; positive”; (Species/Cell Type: Mammalian polychromatic erythrocytes, Assay Type: Micronucleus test, chromosome aberrations, Assay Code: MNT-, Evaluation Type: Evaluation B (Post-1980)) “inactive; negative”; (Species/Cell Type: Saccharomyces cerevisiae, Assay Type: Mitotic recombination or gene conversion, Assay Code: YEH+, Evaluation Type: Evaluation A (Pre-1980)) “active; positive”; under setting [3], “active; positive”; (Species/Cell Type: Salmonella typhimurium, Assay Type: Forward and reverse gene mutation, host-mediated assay, Assay Code: HMA-, Evaluation Type: Evaluation A (Pre-1980)) “inactive; negative”; (Species/Cell Type: Syrian hamster embryo (SHE) cells, Assay Type: Cell transformation, clonal assay, Assay Code: CTC+, Evaluation Type: Evaluation A (Pre-1980)) “active; positive”. For the same molecule, the call under setting [2] is “active; positive”.

On to `Oc1cc2ccc3cc4ccccc4c4ccc(c1)c2c34`, for which the mutagenic call is “inactive; negative” (Species/Cell Type: Chinese hamster lung (V79) cells, Assay Type: Forward gene mutation at the HPRT or ouabain locus, Assay Code: V79-, Evaluation Type: Evaluation A (Pre-1980)) and “active; positive” under setting [4]. The call under setting [2] was “active; positive”.

On to `Clc1ccc(Oc2cc(Cl)c(Cl)cc2Cl)cc1`, for which the mutagenic call runs as follows: (Species/Cell Type: Saccharomyces cerevisiae, Assay Type: Forward gene mutation, Assay Code: YEF-, Evaluation Type: Evaluation A (Pre-1980)) “inactive; negative”; under setting [5], “inactive; negative”; under setting [6], “inactive; negative”.

On to `FC(F)F`, for which the mutagenic call under setting [7] is reported as “no conclusion”.

On to `Cc1c2ccccc2c(C)c2c1ccc1c(O)cccc12`, for which the mutagenic call (Species/Cell Type: Chinese hamster lung (V79) cells, Assay Type: Forward gene mutation at the HPRT or ouabain locus, Assay Code: V79-*, Activation: With metabolic activation, Evaluation Type: Evaluation A (Pre-1980)) was “inactive; negative”. Under “Species/Cell Type: Nonhuman, Assay Code: CCGT, Evaluation Type: Evaluation A (Pre-1980)”, the call is reported as “no conclusion”.

Consider `OC[C@@H](O)[C@@H](O)[C@H](O)[C@H](O)CO`, for which the mutagenic call under setting [8] was “inactive; negative”. Besides, the call (Species/Cell Type: Nonhuman, Assay Code: CCG-, Evaluation Type: Evaluation A (Pre-1980)) was “inactive; negative”.

With `Cc1n(C)c([N+](=O)[O-])c[n+]1C`, the mutagenic call under setting [9] is “no conclusion”.

With `COc1ccc2nc3cc(Cl)ccc3c(NCCCNCCO)c2c1`, the mutagenic call was “inactive; negative” (Species/Cell Type: Chinese hamster ovary (CHO) cells, Assay Type: Forward gene mutation at the HPRT locus, Assay Code: CHO-, Evaluation Type: Evaluation A (Pre-1980)); “no conclusion” under setting [1]; “no conclusion” under setting [9].

`Cc1cc(=O)oc2cc(O)ccc12`: the mutagenic call (Species/Cell Type: Allium cepa, Assay Type: Chromosome aberrations, Assay Code: ALC+, Evaluation Type: Evaluation A (Pre-1980)) was “active; positive”.

As for `COC(=O)COc1ccc(Cl)cc1CCl` (tested in a mixture with another compound), the mutagenic call (Species/Cell Type: Saccharomyces cerevisiae, Assay Type: Reverse gene mutation, Assay Code: YERT, Evaluation Type: Evaluation A (Pre-1980)) was “no conclusion”.

In the case of `[N-]=[N+]=CC(=O)NCC(=O)NN`, the mutagenic call under setting [3] is “active; positive”.

For the molecule `O=C1C(N2CC2)=C(N2CC2)C(=O)C(N2CC2)=C1N1CC1`, the mutagenic call runs as follows: (Species/Cell Type: Drosophila melanogaster, Assay Type: Aneuploidy, partial sex chromosome loss, chromosome aberrations, Assay Code: DAPT, Evaluation Type: Evaluation A (Pre-1980)) “no conclusion”; (Species/Cell Type: Drosophila melanogaster, Assay Type: Aneuploidy, whole sex chromosome loss, chromosome aberrations, Assay Code: DAC+M, Evaluation Type: Evaluation A (Pre-1980)) “active; positive”; (Species/Cell Type: Drosophila melanogaster, Assay Type: Sex-linked recessive lethal gene mutation, Assay Code: SRL+, Evaluation Type: Evaluation A (Pre-1980)) “active; positive”; (Species/Cell Type: Neurospora crassa, Assay Type: Forward gene mutation, Assay Code: NEF+, Evaluation Type: Evaluation A (Pre-1980)) “active; positive”; (Species/Cell Type: Neurospora crassa, Assay Type: Reverse gene mutation, Assay Code: NER+, Evaluation Type: Evaluation A (Pre-1980)) “active; positive”.

With `CNC(=O)Oc1cc(C)cc(C)c1`, the mutagenic call (Species/Cell Type: Bacillus subtilis (H17 vs M45T), Assay Type: Rec-assay, spot test, DNA effects (bacterial DNA repair), Assay Code: REX-, Evaluation Type: Evaluation A (Pre-1980)) was “inactive; negative” and the mutagenic call (Species/Cell Type: Escherichia coli WP2, Assay Type: Tryptophan reverse gene mutation, Assay Code: WP2-, Evaluation Type: Evaluation A (Pre-1980)) is “inactive; negative”.

Regarding `Cc1c2cccc(F)c2c(C)c2c1ccc1ccccc12`, the mutagenic call (Species/Cell Type: Chinese hamster lung (V79) cells, Assay Type: Forward gene mutation at the HPRT or ouabain locus, Assay Code: V79+, Evaluation Type: Evaluation A (Pre-1980)) was “active; positive”.

With `COc1cc(NNc2ccccc2)ccc1N=O`, the mutagenic call under setting [3] was “active; positive”.

For `CCCOC(=O)c1ccc(O)cc1`, for the setting “Species/Cell Type: Salmonella typhimurium (one or more of the five standard strains: TA98, TA100, TA1535, TA1537, and TA1538), Assay Type: Histidine reverse gene mutation, Ames assay, Assay Code: SAL-, Evaluation Type: Evaluation A (Pre-1980)”, the mutagenic call was “inactive; negative”.

Take `COP(=S)(OC)Oc1ccc(SC)c(C)c1`: the mutagenic call was “no conclusion” (Species/Cell Type: Bacillus subtilis (H17 vs M45), Assay Type: Rec-assay, spot test, DNA effects (bacterial DNA repair), Assay Code: REWT, Evaluation Type: Evaluation A (Pre-1980)); “no conclusion” under setting [7]; “inactive; negative” under setting [8]; “no conclusion” (Species/Cell Type: Escherichia coli polA (W3119 vs P3478), Assay Type: Rec-assay, DNA effects (bacterial DNA repair), Assay Code: RE1T, Evaluation Type: Evaluation A (Pre-1980)); “inactive; negative” (Species/Cell Type: Human diploid fibroblasts, Assay Type: Unscheduled DNA synthesis (UDS) in vitro, DNA effects, Assay Code: UDH-, Evaluation Type: Evaluation A (Pre-1980)); “no conclusion” (Species/Cell Type: Human, Assay Type: Sister-chromatid exchange (SCE) in vitro, Assay Code: SC1T, Evaluation Type: Evaluation B (Post-1980)). Further, the mutagenic call (Species/Cell Type: Nonhuman, Assay Type: Sister-chromatid exchange (SCE) in vitro, Assay Code: SC2+D*, Activation: With metabolic activation, Dose Response: With dose response, Evaluation Type: Evaluation B (Post-1980)) was “active; positive” and the mutagenic call under setting [6] was “inactive; negative”.

On to `O=Nc1c(O)c(S(=O)(=O)O)cc2cc(S(=O)(=O)O)ccc12`, for which the mutagenic call (Species/Cell Type: Glycine max (soybean), Assay Type: Gene mutation, Assay Code: GLM-, Evaluation Type: Evaluation A (Pre-1980)) was “inactive; negative”.

Turning to `CC(CN(C)C)CN1c2ccccc2CCc2ccccc21` (configuration not stated), for the setting “Species/Cell Type: Human, Sex: Male, Assay Type: Sperm morphology, Assay Code: SPHT, Evaluation Type: Evaluation A (Pre-1980)”, the mutagenic call was “no conclusion”.

With `CSc1nnc(C(C)(C)C)c(=O)n1N`, the mutagenic call under setting [5] was “inactive; negative”.

On to `O=[N+]([O-])c1ccc2ncccc2c1`, for which, under setting [3], the mutagenic call was “active; positive”.

Consider `O=CNc1nc(-c2cc([N+](=O)[O-])cs2)cs1`, for which the mutagenic call under setting [3] was “active; positive”.

Take `CCCCN(CCC)N=O`: the mutagenic call under setting [4] is “active; positive”.

As to `c1ccc2c(c1)Cc1c(c3ccccc3c3ccccc13)C2`, under setting [4], the mutagenic call was “active; positive”.

Consider `CC(=O)OC[C@H]1O[C@@H](Oc2ccc(O)c3c2C(=O)c2ccccc2C3=O)[C@H](OC(C)=O)[C@@H](OC(C)=O)[C@@H]1OC(C)=O`, for which, under setting [9], the mutagenic call is given as “no conclusion”.
